Test results published in patent US20200187505A1, “SEED, SOIL, AND PLANT TREATMENT COMPOSITIONS” (RALCO NUTRITION, INC., priority 2017, published 2020).

System: soy
Settings: in-furrow, five grams per acre, versus check; for average soybean seed weight per pot: FIG. 49
Description: The Generate was applied at a rate one pint per acre. The remaining compositions were applied at a rate of five grams per acre. The soy was planted in May and harvested in October, with fertilizer applications in June and July.

Substance	total average soybean seed weight (FIG. 48)	average soybean seed weight per pot
nickel lactate	increase total average soybean seed weight above the check	increase seed weight over the check
nickel ammonium citrate		increase seed weight over the check
